Data as given in PubChem BioAssay (NCI).
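Results reflect a 48-hour exposure of cells in 96-well plates to compound at five concentrations. GI50 marks 50% less growth. TGI: concentration producing complete growth inhibition.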

Tests used:
Test in all cases: growth of human tumour cells (NCI), 48 h
K-562 leukemia = tested on: K-562 leukemia
RXF 393 renal = tested on: RXF 393 renal
HL-60(TB) leukemia = tested on: HL-60(TB) leukemia
OVCAR-5 ovarian = tested on: OVCAR-5 ovarian
SK-MEL-28 melanoma = tested on: SK-MEL-28 melanoma
OVCAR-4 ovarian = tested on: OVCAR-4 ovarian
UACC-257 melanoma = tested on: UACC-257 melanoma
HOP-62 NSCLC = tested on: HOP-62 NSCLC
NCI/ADR-RES ovarian = tested on: NCI/ADR-RES ovarian
HS 578T breast = tested on: HS 578T breast

## O=C1C2c3[nH]c4ccccc4c3[C@@H]3CCCCC3C2C(=O)N1c1ccccc1 (stereo partly specified)
K-562 leukemia
  TGI: > 100 µM
RXF 393 renal
  TGI: 32.7 µM
HL-60(TB) leukemia
  TGI: 47.5 µM
OVCAR-5 ovarian
  TGI: 51.8 µM
SK-MEL-28 melanoma
  TGI: 33 µM
OVCAR-4 ovarian
  TGI: 75 µM

## CCCCCCCCCCCCN(O)C(=O)c1ccccc1
K-562 leukemia
  TGI: > 100 µM
RXF 393 renal
  TGI: > 100 µM
UACC-257 melanoma
  TGI: 49.1 µM
HL-60(TB) leukemia
  TGI: 54.8 µM
OVCAR-5 ovarian
  TGI: 82.2 µM
SK-MEL-28 melanoma
  TGI: > 100 µM

## COc1cc([C@@H]2c3cc4c(cc3[C@@H](NC(=O)c3cccc(F)c3)C3COC(=O)[C@@H]32)OCO4)cc(OC)c1O (stereo partly specified)
K-562 leukemia
  TGI: > 100 µM
RXF 393 renal
  TGI: 37.5 µM
UACC-257 melanoma
  TGI: 58.1 µM
HL-60(TB) leukemia
  TGI: 2.3 µM
OVCAR-5 ovarian
  TGI: 33 µM
HOP-62 NSCLC
  TGI: 1.94 µM
SK-MEL-28 melanoma
  TGI: 56.5 µM
OVCAR-4 ovarian
  TGI: > 100 µM

## Cc1ccc(C)c(NC(=O)CCc2nc(=S)[nH][nH]2)c1
K-562 leukemia
  TGI: > 100 µM
RXF 393 renal
  TGI: > 100 µM
UACC-257 melanoma
  TGI: > 100 µM
OVCAR-5 ovarian
  TGI: > 100 µM
HOP-62 NSCLC
  TGI: > 100 µM
SK-MEL-28 melanoma
  TGI: > 100 µM
OVCAR-4 ovarian
  TGI: > 100 µM

## COc1ccc(C(=O)c2cc3c(N)c(C(=O)Nc4cccc(Cl)c4C)sc3nc2C)cc1
K-562 leukemia
  GI50: 0.0901 µM
  TGI: > 25 µM
UACC-257 melanoma
  GI50: > 6.12 µM
  TGI: > 25 µM
NCI/ADR-RES ovarian
  GI50: 0.086 µM
  TGI: > 25 µM
HL-60(TB) leukemia
  GI50: 0.0759 µM
  TGI: 0.226 µM
OVCAR-5 ovarian
  GI50: 0.266 µM
  TGI: > 25 µM
HS 578T breast
  GI50: 0.0832 µM
  TGI: > 25 µM
HOP-62 NSCLC
  GI50: 0.154 µM
  TGI: > 25 µM
SK-MEL-28 melanoma
  GI50: > 25 µM
  TGI: > 25 µM
OVCAR-4 ovarian
  GI50: 0.851 µM
  TGI: > 25 µM

## O=C(O)Cn1c(=O)[nH]c(=O)c2c1ncn2Cc1ccccc1
K-562 leukemia
  TGI: > 100 µM
OVCAR-5 ovarian
  TGI: > 100 µM
HOP-62 NSCLC
  TGI: > 100 µM
SK-MEL-28 melanoma
  TGI: > 100 µM

## Cc1ccc2[nH]c3c(ncc4[nH]c5ccccc5c43)c2c1
K-562 leukemia
  TGI: 30.2 µM
RXF 393 renal
  TGI: 27.2 µM
UACC-257 melanoma
  TGI: 33.2 µM
HL-60(TB) leukemia
  TGI: 36.3 µM
OVCAR-5 ovarian
  TGI: 30.8 µM
HOP-62 NSCLC
  TGI: > 10 µM
SK-MEL-28 melanoma
  TGI: 32 µM
OVCAR-4 ovarian
  TGI: 37.9 µM

## O=C(NNC(=O)c1cc(/C=C/c2cccc([N+](=O)[O-])c2)[nH]c(=S)n1)Nc1ccc(Cl)cc1
K-562 leukemia
  TGI: > 100 µM
RXF 393 renal
  TGI: > 100 µM
UACC-257 melanoma
  TGI: > 100 µM
HL-60(TB) leukemia
  TGI: 84.1 µM
OVCAR-5 ovarian
  TGI: > 100 µM
HOP-62 NSCLC
  TGI: > 100 µM
SK-MEL-28 melanoma
  TGI: > 100 µM

## Cc1cc(C)c(S(=O)(=O)ONC(=O)OC(C)(C)C)c(C)c1
K-562 leukemia
  TGI: > 100 µM
RXF 393 renal
  TGI: > 100 µM
UACC-257 melanoma
  TGI: > 100 µM
HL-60(TB) leukemia
  TGI: > 100 µM
OVCAR-5 ovarian
  TGI: > 100 µM
HOP-62 NSCLC
  TGI: > 100 µM
SK-MEL-28 melanoma
  TGI: > 100 µM
OVCAR-4 ovarian
  TGI: > 100 µM

## CCCCCC/C=C\CCCCCCCCCC1=CC(=O)C=C(OC)C1=O
RXF 393 renal
  TGI: 13.1 µM
UACC-257 melanoma
  TGI: 9.11 µM
NCI/ADR-RES ovarian
  TGI: 19.1 µM
OVCAR-5 ovarian
  TGI: 17.8 µM
HS 578T breast
  TGI: 41.7 µM
HOP-62 NSCLC
  TGI: 14.8 µM
SK-MEL-28 melanoma
  TGI: 25.7 µM
OVCAR-4 ovarian
  TGI: 9.22 µM

## CC/C(C)=C1\OC(=O)C(C)C(O)C(Cc2cccnc2)NC(=O)C(NC(=O)c2ncccc2O)C(C)OC1=O (stereo unspecified)
K-562 leukemia
  TGI: > 100 µM
UACC-257 melanoma
  TGI: > 100 µM
HL-60(TB) leukemia
  TGI: > 100 µM
OVCAR-5 ovarian
  TGI: > 100 µM
HS 578T breast
  TGI: > 100 µM
HOP-62 NSCLC
  TGI: > 100 µM
SK-MEL-28 melanoma
  TGI: > 100 µM
OVCAR-4 ovarian
  TGI: > 100 µM

## COC12CC(=O)C(C(C)=O)=C(O)C1(C)c1c(OC(C)=O)c(C)c(O)c(C(C)=O)c1O2 (stereo unspecified)
K-562 leukemia
  TGI: > 100 µM
RXF 393 renal
  TGI: 62.5 µM
UACC-257 melanoma
  TGI: 91.4 µM
HL-60(TB) leukemia
  TGI: 42.5 µM
OVCAR-5 ovarian
  TGI: > 100 µM
HOP-62 NSCLC
  TGI: 95.8 µM
SK-MEL-28 melanoma
  TGI: > 100 µM
OVCAR-4 ovarian
  TGI: > 100 µM

## O=C(NCCCCCCCCNC(=O)c1cccc2ccccc12)c1cccc2ccccc12
K-562 leukemia
  TGI: > 100 µM
RXF 393 renal
  TGI: 7.74 µM
UACC-257 melanoma
  TGI: > 100 µM
NCI/ADR-RES ovarian
  TGI: > 100 µM
HL-60(TB) leukemia
  TGI: > 100 µM
OVCAR-5 ovarian
  TGI: > 100 µM
HOP-62 NSCLC
  TGI: 13.5 µM
SK-MEL-28 melanoma
  TGI: > 94.4 µM
OVCAR-4 ovarian
  TGI: 19 µM

## O=C1c2c(O)cc(O)cc2OC(c2ccc(O)cc2O)C1O (stereo unspecified)
K-562 leukemia
  GI50: > 100 µM
  TGI: > 100 µM
RXF 393 renal
  TGI: > 100 µM
UACC-257 melanoma
  GI50: > 100 µM
  TGI: > 100 µM
HL-60(TB) leukemia
  GI50: > 100 µM
  TGI: > 100 µM
OVCAR-5 ovarian
  GI50: > 100 µM
  TGI: > 100 µM
HS 578T breast
  TGI: > 100 µM
HOP-62 NSCLC
  GI50: > 100 µM
  TGI: > 100 µM
SK-MEL-28 melanoma
  GI50: > 100 µM
  TGI: > 100 µM
OVCAR-4 ovarian
  GI50: > 100 µM
  TGI: > 100 µM

## CNC1C(O)C(OC2C(N)CC(N)C(OC3OC(C(C)O)C(O)C(O)C3N)C2O)OCC1(C)O (stereo unspecified)
K-562 leukemia
  TGI: > 100 µM
NCI/ADR-RES ovarian
  TGI: > 100 µM
HL-60(TB) leukemia
  TGI: > 100 µM
OVCAR-5 ovarian
  TGI: > 100 µM
HS 578T breast
  TGI: > 100 µM
HOP-62 NSCLC
  TGI: > 100 µM
SK-MEL-28 melanoma
  TGI: > 100 µM
OVCAR-4 ovarian
  TGI: > 100 µM

## COc1ccc2c(c1)CCC1=CC3(CCC12C)SCCS3 (stereo unspecified)
K-562 leukemia
  TGI: > 10 µM
UACC-257 melanoma
  TGI: > 10 µM
NCI/ADR-RES ovarian
  TGI: > 10 µM
HL-60(TB) leukemia
  TGI: 8.36 µM
HOP-62 NSCLC
  TGI: > 10 µM
SK-MEL-28 melanoma
  TGI: > 10 µM
OVCAR-4 ovarian
  TGI: > 10 µM

## COc1ccc(/C(=N/NC(N)=O)C(c2ccc(OC)cc2)C2C(=O)Oc3ccccc32)cc1 (stereo unspecified)
K-562 leukemia
  TGI: > 100 µM
RXF 393 renal
  TGI: > 100 µM
UACC-257 melanoma
  TGI: > 100 µM
HL-60(TB) leukemia
  TGI: > 100 µM
OVCAR-5 ovarian
  TGI: > 100 µM
HOP-62 NSCLC
  TGI: > 100 µM
SK-MEL-28 melanoma
  TGI: > 100 µM
OVCAR-4 ovarian
  TGI: > 100 µM

## O=C1C(Cl)=C(Nc2cccc(O)c2)C(=O)N1c1ccccc1Cl
K-562 leukemia
  GI50: 25 µM
  TGI: 63.2 µM
RXF 393 renal
  GI50: 7.87 µM
  TGI: 41.2 µM
NCI/ADR-RES ovarian
  GI50: 56.3 µM
  TGI: > 100 µM
OVCAR-5 ovarian
  GI50: 55.2 µM
  TGI: > 100 µM
HS 578T breast
  GI50: 21 µM
  TGI: 77.7 µM
HOP-62 NSCLC
  GI50: 32.9 µM
  TGI: > 100 µM
SK-MEL-28 melanoma
  GI50: 58 µM
  TGI: > 100 µM
OVCAR-4 ovarian
  GI50: 40.4 µM
  TGI: > 100 µM

## O=C1/C(=C/c2ccccc2)CN(C(=O)OCc2ccccc2)C/C1=C\c1ccccc1
K-562 leukemia
  GI50: 1.63 µM
  TGI: 15.4 µM
RXF 393 renal
  TGI: 19.8 µM
UACC-257 melanoma
  GI50: 9.19 µM
  TGI: 28.3 µM
HL-60(TB) leukemia
  TGI: 5.43 µM
OVCAR-5 ovarian
  TGI: 30.8 µM
HS 578T breast
  TGI: 10.1 µM
HOP-62 NSCLC
  TGI: 39.9 µM
SK-MEL-28 melanoma
  TGI: 32.8 µM
OVCAR-4 ovarian
  GI50: 7.9 µM
  TGI: 27.4 µM

## COc1cc(-c2cc(=O)c3cc(C)c(C)c(C(=O)O)c3o2)cc(OC)c1OC
K-562 leukemia
  TGI: > 100 µM
UACC-257 melanoma
  TGI: > 100 µM
OVCAR-5 ovarian
  TGI: > 100 µM
HOP-62 NSCLC
  TGI: > 100 µM
SK-MEL-28 melanoma
  TGI: > 100 µM
OVCAR-4 ovarian
  TGI: > 100 µM

## CN(C)c1n/c(=N/c2ncn[nH]2)ss1
K-562 leukemia
  TGI: > 100 µM
RXF 393 renal
  TGI: > 100 µM
UACC-257 melanoma
  TGI: > 100 µM
HL-60(TB) leukemia
  TGI: > 100 µM
OVCAR-5 ovarian
  TGI: > 100 µM
HOP-62 NSCLC
  TGI: > 100 µM
SK-MEL-28 melanoma
  TGI: > 100 µM
OVCAR-4 ovarian
  TGI: > 100 µM

## CC(C)(C)C(=O)O[C@@H]1COC2C(O)COC21 (stereo partly specified)
K-562 leukemia
  TGI: > 100 µM
RXF 393 renal
  TGI: > 100 µM
UACC-257 melanoma
  TGI: > 100 µM
HL-60(TB) leukemia
  TGI: > 100 µM
OVCAR-5 ovarian
  TGI: > 100 µM
HOP-62 NSCLC
  TGI: > 100 µM
SK-MEL-28 melanoma
  TGI: > 100 µM
OVCAR-4 ovarian
  TGI: > 100 µM

## Nc1nnc(Cn2c(-c3ccccc3)nc3ccc(Br)cc3c2=O)s1
NCI/ADR-RES ovarian
  GI50: 41.2 µM
  TGI: > 100 µM
OVCAR-5 ovarian
  GI50: > 100 µM
  TGI: > 100 µM
HS 578T breast
  GI50: 41.4 µM
  TGI: > 100 µM
HOP-62 NSCLC
  GI50: 36.8 µM
  TGI: > 100 µM
SK-MEL-28 melanoma
  GI50: > 100 µM
  TGI: > 100 µM
OVCAR-4 ovarian
  GI50: > 100 µM
  TGI: > 100 µM
